According to PubChem BioAssay AID248 (DTP/NCI, 2004):
Inconclusive results and toxic doses are left out. Cut-off read from the data, not from the text of the source: active = T/C of 150% or more; inactive = T/C below 125%.

Tested on: L1210 leukemia ip in BDF1 mice, survival T/C
Assay: NCI In Vivo Anticancer Drug Screen. Data for tumor model L1210 Leukemia (intraperitoneal) in B6D2F1 (BDF1) mice
Conditions: endpoint: mean survival time, higher = longer survival
Summary of the method: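 Transplantable tumor model; survival measured in treated vs vehicle control mice. Value = treated/control.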

[1] = dose: 100.0 mg/kg/injection, schedule: Q01DX001 (ip), vehicle: Klucel (hydroxypropylcellulose) (HPC)
[2] = dose: 200.0 mg/kg/injection, schedule: Q01DX001 (ip), vehicle: Klucel (hydroxypropylcellulose) (HPC)
[3] = dose: 100.0 mg/kg/injection, schedule: Q01DX009 (ip), vehicle: Klucel (hydroxypropylcellulose) (HPC)
[4] = dose: 100.0 mg/kg/injection, schedule: Q04DX003 (ip), vehicle: Klucel (hydroxypropylcellulose) (HPC)
[5] = dose: 200.0 mg/kg/injection, schedule: Q01DX009 (ip), vehicle: Klucel (hydroxypropylcellulose) (HPC)
[6] = dose: 200.0 mg/kg/injection, schedule: Q04DX003 (ip), vehicle: Klucel (hydroxypropylcellulose) (HPC)
[7] = dose: 400.0 mg/kg/injection, schedule: Q01DX009 (ip), vehicle: Klucel (hydroxypropylcellulose) (HPC)
[8] = dose: 400.0 mg/kg/injection, schedule: Q04DX003 (ip), vehicle: Klucel (hydroxypropylcellulose) (HPC)
[9] = dose: 100.0 mg/kg/injection, schedule: Q04DX003 (ip), vehicle: saline
[10] = dose: 200.0 mg/kg/injection, schedule: Q04DX003 (ip), vehicle: saline
[11] = dose: 400.0 mg/kg/injection, schedule: Q04DX003 (ip), vehicle: saline
[12] = dose: 100.0 mg/kg/injection, schedule: Q01DX001 (ip), vehicle: saline
[13] = dose: 200.0 mg/kg/injection, schedule: Q01DX001 (ip), vehicle: saline
[14] = dose: 100.0 mg/kg/injection, schedule: Q04DX002 (ip), vehicle: saline with Tween-80
[15] = dose: 200.0 mg/kg/injection, schedule: Q04DX002 (ip), vehicle: saline with Tween-80
[16] = dose: 400.0 mg/kg/injection, schedule: Q04DX002 (ip), vehicle: saline with Tween-80

Measured: T/C

NC(=S)NNC(N)=S
inactive: dose: 50.0 mg/kg/injection, schedule: Q01DX001 (ip), vehicle: Klucel (hydroxypropylcellulose) (HPC) 90 % of control | [1] 97 % of control | [2] 100 % of control

CC(C)CCSc1ccccc1
inactive: dose: 18.75 mg/kg/injection, schedule: Q01DX009 (ip), vehicle: acetone 91 % of control | dose: 37.5 mg/kg/injection, schedule: Q01DX009 (ip), vehicle: acetone 92 % of control | dose: 37.5 mg/kg/injection, schedule: Q04DX003 (ip), vehicle: acetone 100 % of control | dose: 75.0 mg/kg/injection, schedule: Q01DX001 (ip), vehicle: acetone 100 % of control | dose: 75.0 mg/kg/injection, schedule: Q01DX009 (ip), vehicle: acetone 91 % of control | dose: 75.0 mg/kg/injection, schedule: Q04DX003 (ip), vehicle: acetone 90 % of control | dose: 150.0 mg/kg/injection, schedule: Q01DX001 (ip), vehicle: acetone 94 % of control | dose: 150.0 mg/kg/injection, schedule: Q04DX003 (ip), vehicle: acetone 95 % of control

Oc1ccccc1/C=N\N=C(N/N=C/c1ccccc1O)N/N=C/c1ccccc1O
inactive: dose: 15.0 mg/kg/injection, schedule: Q01DX Z (ip), vehicle: saline 98 % of control | dose: 30.0 mg/kg/injection, schedule: Q01DX Z (ip), vehicle: saline 102 % of control | dose: 60.0 mg/kg/injection, schedule: Q01DX Z (ip), vehicle: saline 102 % of control | dose: 120.0 mg/kg/injection, schedule: Q01DX Z (ip), vehicle: saline 96 % of control | dose: 120.0 mg/kg/injection, schedule: Q01DX Z (oral), vehicle: saline 95 % of control | dose: 240.0 mg/kg/injection, schedule: Q01DX Z (ip), vehicle: saline 101 % of control | dose: 240.0 mg/kg/injection, schedule: Q01DX Z (oral), vehicle: saline 90 % of control | dose: 480.0 mg/kg/injection, schedule: Q01DX Z (ip), vehicle: saline 95 % of control | dose: 480.0 mg/kg/injection, schedule: Q01DX Z (oral), vehicle: saline 92 % of control | dose: 960.0 mg/kg/injection, schedule: Q01DX Z (oral), vehicle: saline 90 % of control

CCCCCCCCCCNC(C)=O
inactive: [3] 104 % of control | [4] 109 % of control | [5] 106 % of control | [6] 96 % of control | [7] 89 % of control | [8] 102 % of control

CCC(C)C1NC(=O)C2C(CCN2C(=O)C(NC(=O)C(Cc2ccccc2)N(C)C)C(C)CC)Oc2ccc(cc2)/C=C\NC1=O (centres undefined)
inactive: [9] 94 % of control | [10] 97 % of control | [11] 92 % of control

C=C1N(c2ccc(OC)c(OC)c2)C(=O)OC12CCCCC2
inactive: dose: 25.0 mg/kg/injection, schedule: Q04DX003 (ip), vehicle: Klucel (hydroxypropylcellulose) (HPC) 93 % of control | dose: 50.0 mg/kg/injection, schedule: Q04DX003 (ip), vehicle: Klucel (hydroxypropylcellulose) (HPC) 93 % of control | [4] 102 % of control | [6] 96 % of control

CCOC(=O)c1n[nH]c(=S)[nH]c1=S
inactive: dose: 100.0 mg/kg/injection, schedule: Q01DX001 (ip), vehicle: acetone 102 % of control | dose: 200.0 mg/kg/injection, schedule: Q01DX001 (ip), vehicle: acetone 101 % of control | dose: 400.0 mg/kg/injection, schedule: Q01DX001 (ip), vehicle: acetone 107 % of control

CC(=O)NS(=O)(=O)CCCC[n+]1c(C)oc2ccc(-c3ccccc3)cc21
inactive: dose: 100.0 mg/kg/injection, schedule: Q04DX003 (sc), vehicle: olive oil, sesame oil, peanut oil 98 % of control | dose: 200.0 mg/kg/injection, schedule: Q04DX003 (sc), vehicle: olive oil, sesame oil, peanut oil 100 % of control | dose: 400.0 mg/kg/injection, schedule: Q04DX003 (sc), vehicle: olive oil, sesame oil, peanut oil 100 % of control

COc1cc2ccc(CC(=O)NCCc3ccc4c(c3)OCO4)cc2cc1OC
inactive: [3] 97 % of control | [4] 97 % of control | [5] 90 % of control | [6] 102 % of control | [7] 93 % of control | [8] 91 % of control

CCCCCCCCCNC(C)=O
inactive: [3] 97 % of control | [5] 92 % of control

ClC1(Cl)c2ccccc2-c2ccccc21
inactive: [12] 103 % of control | [13] 113 % of control | dose: 400.0 mg/kg/injection, schedule: Q01DX001 (ip), vehicle: saline 110 % of control

c1ccc2c(CC3=NCCN3)cccc2c1
inactive: dose: 12.5 mg/kg/injection, schedule: Q01DX009 (ip), vehicle: saline with Tween-80 96 % of control | dose: 25.0 mg/kg/injection, schedule: Q01DX009 (ip), vehicle: saline with Tween-80 103 % of control

CC(=O)OCC1OCOC2C1OC1OCOC12 (centres undefined)
inactive: [14] 104 % of control | [15] 104 % of control | [16] 118 % of control

CC(NC(=O)Cc1ccccc1)C(=O)NN (centres undefined)
inactive: dose: 100.0 mg/kg/injection, schedule: Q01DX009 (ip), vehicle: saline 100 % of control | dose: 200.0 mg/kg/injection, schedule: Q01DX009 (ip), vehicle: saline 102 % of control | dose: 400.0 mg/kg/injection, schedule: Q01DX009 (ip), vehicle: saline 91 % of control

CCCCOc1c(Cl)c(Cl)c(O)c(Cl)c1Cl
inactive: dose: 50.0 mg/kg/injection, schedule: Q01DX009 (ip), vehicle: acetone 101 % of control | dose: 50.0 mg/kg/injection, schedule: Q04DX003 (ip), vehicle: saline 97 % of control | [12] 93 % of control | dose: 100.0 mg/kg/injection, schedule: Q01DX009 (ip), vehicle: acetone 93 % of control | [9] 94 % of control | [13] 88 % of control | [10] 87 % of control

Nc1cc(F)c2c(c1)Cc1cc(F)ccc1-2
inactive: dose: 50.0 mg/kg/injection, schedule: Q01DX001 (ip), vehicle: carboxymethylcellulose (CMC) 101 % of control | dose: 100.0 mg/kg/injection, schedule: Q01DX001 (ip), vehicle: carboxymethylcellulose (CMC) 109 % of control | dose: 200.0 mg/kg/injection, schedule: Q01DX001 (ip), vehicle: carboxymethylcellulose (CMC) 95 % of control

O=C(SCc1ccccc1)C(O)c1ccccc1 (centres undefined)
inactive: [9] 94 % of control | [10] 100 % of control | [11] 97 % of control

Clc1ccc(-c2cc(=[N+]3CCOCC3)ss2)cc1
inactive: dose: 25.0 mg/kg/injection, schedule: Q01DX009 (ip), vehicle: water 101 % of control | dose: 50.0 mg/kg/injection, schedule: Q01DX009 (ip), vehicle: water 93 % of control | dose: 100.0 mg/kg/injection, schedule: Q01DX009 (ip), vehicle: water 96 % of control | dose: 200.0 mg/kg/injection, schedule: Q01DX009 (ip), vehicle: water 88 % of control

CCCCCCCCCSCC
inactive: dose: 100.0 mg/kg/injection, schedule: Q04DX003 (ip), vehicle: saline with Tween-80 102 % of control | dose: 200.0 mg/kg/injection, schedule: Q04DX003 (ip), vehicle: saline with Tween-80 96 % of control | dose: 400.0 mg/kg/injection, schedule: Q04DX003 (ip), vehicle: saline with Tween-80 102 % of control

O=C(NNCc1ccccc1)c1ccccn1
inactive: dose: 12.5 mg/kg/injection, schedule: Q01DX009 (ip), vehicle: Klucel (hydroxypropylcellulose) (HPC) 102 % of control | dose: 25.0 mg/kg/injection, schedule: Q01DX009 (ip), vehicle: Klucel (hydroxypropylcellulose) (HPC) 94 % of control | dose: 50.0 mg/kg/injection, schedule: Q01DX009 (ip), vehicle: Klucel (hydroxypropylcellulose) (HPC) 97 % of control | [3] 94 % of control

CC(=O)[O][Hg][C]([Hg][O]C(C)=O)([Hg][O]C(C)=O)[Hg][O]C(C)=O
inactive: [1] 91 % of control | [2] 96 % of control | dose: 400.0 mg/kg/injection, schedule: Q01DX001 (ip), vehicle: Klucel (hydroxypropylcellulose) (HPC) 89 % of control

CC1(c2ccncc2)OCCO1
inactive: [12] 97 % of control | [13] 101 % of control

CC(O)c1ccc2c(c1)Nc1ccccc1S2 (centres undefined)
inactive: [14] 91 % of control | [15] 105 % of control | [16] 91 % of control

Cc1c(O)c2ccc(Cl)cc2n(C)c1=O
inactive: [14] 100 % of control | [15] 94 % of control | [16] 103 % of control
